# Test results taken from PubChem BioAssay AID328 (DTP/NCI, 2004).
# Where “and” joins values, the source holds several entries; their conditions need not be identical. Equal values may be shown once. Inconclusive results and toxic doses are left out.
# Tested on: BDF1 mice, P388 leukemia ip, median survival T/C
# Assay: NCI In Vivo Anticancer Drug Screen. Data for tumor model P388 Leukemia (intraperitoneal) in B6D2F1 (BDF1) mice
# Conditions: endpoint: median survival time, higher = longer survival
# In short: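 Steps: implant the tumour, treat one group with compound and another with vehicle, record survival, then divide treated by control.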
# [1] = dose: 100.0 mg/kg/injection, schedule: Q04DX003 (ip), vehicle: saline with Tween-80
# [2] = dose: 200.0 mg/kg/injection, schedule: Q04DX003 (ip), vehicle: saline with Tween-80
# [3] = dose: 50.0 mg/kg/injection, schedule: Q01DX009 (ip), vehicle: Klucel (hydroxypropylcellulose) (HPC)
# [4] = dose: 100.0 mg/kg/injection, schedule: Q04DX003 (ip), vehicle: Klucel (hydroxypropylcellulose) (HPC)
# [5] = dose: 50.0 mg/kg/injection, schedule: Q01DX009 (ip), vehicle: saline
structure (smiles),measurement,setting,value
O=C(COc1cc(Cl)c(Cl)cc1Cl)OCCOc1cc(Cl)c(Cl)cc1Cl,T/C,"dose: 3.13 mg/kg/injection, schedule: Q01DX009 (ip), vehicle: saline with Tween-80",91 % of control
same,T/C,"dose: 3.13 mg/kg/injection, schedule: Q04DX003 (ip), vehicle: saline with Tween-80",100 % of control
same,T/C,"dose: 6.25 mg/kg/injection, schedule: Q04DX003 (ip), vehicle: saline with Tween-80",95 % of control
same,T/C,"dose: 12.5 mg/kg/injection, schedule: Q04DX003 (ip), vehicle: saline with Tween-80",100 % of control
O=c1cc(-c2cccs2)ss1,T/C,"dose: 25.0 mg/kg/injection, schedule: Q01DX009 (ip), vehicle: saline with Tween-80",106 % of control
same,T/C,"dose: 50.0 mg/kg/injection, schedule: Q01DX009 (ip), vehicle: saline with Tween-80",97 % of control
same,T/C,"dose: 100.0 mg/kg/injection, schedule: Q01DX009 (ip), vehicle: saline with Tween-80",86 % of control and 106 % of control
same,T/C,[1],106 % of control
same,T/C,"dose: 200.0 mg/kg/injection, schedule: Q01DX009 (ip), vehicle: saline with Tween-80",116 % of control
same,T/C,[2],92 % of control
CC(C)c1ccc(C(=O)C2CC2)cc1,T/C,"dose: 25.0 mg/kg/injection, schedule: Q04DX003 (ip), vehicle: Klucel (hydroxypropylcellulose) (HPC)",100 % of control
same,T/C,[3],100 % of control
same,T/C,"dose: 50.0 mg/kg/injection, schedule: Q04DX003 (ip), vehicle: Klucel (hydroxypropylcellulose) (HPC)",87 % of control
same,T/C,"dose: 100.0 mg/kg/injection, schedule: Q01DX009 (ip), vehicle: Klucel (hydroxypropylcellulose) (HPC)",113 % of control
same,T/C,[4],100 % of control
same,T/C,"dose: 200.0 mg/kg/injection, schedule: Q01DX009 (ip), vehicle: Klucel (hydroxypropylcellulose) (HPC)",113 % of control
same,T/C,"dose: 200.0 mg/kg/injection, schedule: Q04DX003 (ip), vehicle: Klucel (hydroxypropylcellulose) (HPC)",95 % of control
O=C(Nc1ccccc1C(F)(F)F)Oc1ccc(Cl)cc1Cl,T/C,[1],122 % of control
same,T/C,[2],109 % of control
same,T/C,"dose: 400.0 mg/kg/injection, schedule: Q04DX003 (ip), vehicle: saline with Tween-80",118 % of control
CCCCCCOc1ccc(OCCCC[N+]2(CC)CCCCC2)cc1,T/C,"dose: 6.25 mg/kg/injection, schedule: Q01DX009 (ip), vehicle: saline",103 % of control
same,T/C,"dose: 12.5 mg/kg/injection, schedule: Q01DX009 (ip), vehicle: saline",110 % of control
O=[N+]([O-])C=C1CCCCC1,T/C,"dose: 25.0 mg/kg/injection, schedule: Q01DX001 (ip), vehicle: saline with Tween-80",113 % of control
same,T/C,"dose: 50.0 mg/kg/injection, schedule: Q01DX001 (ip), vehicle: saline with Tween-80",118 % of control
same,T/C,"dose: 100.0 mg/kg/injection, schedule: Q01DX001 (ip), vehicle: saline with Tween-80",113 % of control
CCc1cc2c(cc1C(=O)CBr)C(C)(C)CCC2(C)C,T/C,"dose: 3.12 mg/kg/injection, schedule: Q01DX009 (ip), vehicle: Klucel (hydroxypropylcellulose) (HPC)",110 % of control
same,T/C,"dose: 3.8 mg/kg/injection, schedule: Q04DX003 (ip), vehicle: Klucel (hydroxypropylcellulose) (HPC)",113 % of control
same,T/C,"dose: 5.7 mg/kg/injection, schedule: Q04DX003 (ip), vehicle: Klucel (hydroxypropylcellulose) (HPC)",113 % of control
same,T/C,"dose: 6.25 mg/kg/injection, schedule: Q01DX009 (ip), vehicle: Klucel (hydroxypropylcellulose) (HPC)",105 % of control
same,T/C,"dose: 12.5 mg/kg/injection, schedule: Q01DX009 (ip), vehicle: Klucel (hydroxypropylcellulose) (HPC)",110 % of control
same,T/C,"dose: 23.0 mg/kg/injection, schedule: Q04DX003 (ip), vehicle: Klucel (hydroxypropylcellulose) (HPC)",100 % of control
same,T/C,"dose: 52.5 mg/kg/injection, schedule: Q04DX003 (ip), vehicle: Klucel (hydroxypropylcellulose) (HPC)",120 % of control
c1ccc([As+](c2ccccc2)(c2ccccc2)c2ccccc2)cc1,T/C,"dose: 0.1 mg/kg/injection, schedule: Q04DX003 (ip), vehicle: saline",110 % of control
same,T/C,"dose: 0.15 mg/kg/injection, schedule: Q01DX009 (ip), vehicle: saline",105 % of control
same,T/C,"dose: 0.15 mg/kg/injection, schedule: Q04DX003 (ip), vehicle: saline",105 % of control
same,T/C,"dose: 0.23 mg/kg/injection, schedule: Q01DX009 (ip), vehicle: saline",116 % of control
same,T/C,"dose: 0.36 mg/kg/injection, schedule: Q04DX003 (ip), vehicle: saline",110 % of control
same,T/C,"dose: 0.54 mg/kg/injection, schedule: Q01DX009 (ip), vehicle: saline",122 % of control
same,T/C,"dose: 0.55 mg/kg/injection, schedule: Q04DX003 (ip), vehicle: saline",165 % of control
same,T/C,"dose: 2.4 mg/kg/injection, schedule: Q01DX009 (ip), vehicle: saline",184 % of control
same,T/C,"dose: 2.5 mg/kg/injection, schedule: Q01DX009 (ip), vehicle: saline",155 % of control
same,T/C,"dose: 3.75 mg/kg/injection, schedule: Q01DX009 (ip), vehicle: saline",160 % of control and 161 % of control and 184 % of control
same,T/C,"dose: 5.0 mg/kg/injection, schedule: Q04DX003 (ip), vehicle: saline",150 % of control and 160 % of control
same,T/C,"dose: 5.6 mg/kg/injection, schedule: Q01DX009 (ip), vehicle: saline",121 % of control
same,T/C,"dose: 5.63 mg/kg/injection, schedule: Q01DX009 (ip), vehicle: saline",165 % of control
same,T/C,"dose: 7.5 mg/kg/injection, schedule: Q04DX003 (ip), vehicle: saline",150 % of control
CC[C@H]1CN(C)[C@H]2Cc3c([nH]c4ccccc34)C(=O)C[C@H]1C2C(=O)OC (stereo partly drawn),T/C,"dose: 0.25 mg/kg/injection, schedule: Q01DX009 (ip), vehicle: other",86 % of control
same,T/C,"dose: 0.5 mg/kg/injection, schedule: Q01DX009 (ip), vehicle: other",86 % of control
same,T/C,"dose: 1.0 mg/kg/injection, schedule: Q01DX009 (ip), vehicle: other",86 % of control
same,T/C,"dose: 2.0 mg/kg/injection, schedule: Q01DX009 (ip), vehicle: other",95 % of control
NC(CSCc1ccc(N(CCCl)CCCl)cc1)C(=O)O (stereo not drawn),T/C,"dose: 1.2 mg/kg/injection, schedule: Q04DX003 (ip), vehicle: Klucel (hydroxypropylcellulose) (HPC)",95 % of control
same,T/C,"dose: 2.6 mg/kg/injection, schedule: Q04DX003 (ip), vehicle: Klucel (hydroxypropylcellulose) (HPC)",154 % of control
same,T/C,"dose: 4.0 mg/kg/injection, schedule: Q01DX009 (ip), vehicle: saline with Tween-80",183 % of control
same,T/C,"dose: 6.0 mg/kg/injection, schedule: Q01DX009 (ip), vehicle: saline with Tween-80",206 % of control
same,T/C,"dose: 6.0 mg/kg/injection, schedule: Q04DX003 (ip), vehicle: Klucel (hydroxypropylcellulose) (HPC)",154 % of control
same,T/C,"dose: 9.0 mg/kg/injection, schedule: Q01DX009 (ip), vehicle: saline with Tween-80",223 % of control
same,T/C,"dose: 13.0 mg/kg/injection, schedule: Q04DX003 (ip), vehicle: Klucel (hydroxypropylcellulose) (HPC)",190 % of control
same,T/C,"dose: 20.0 mg/kg/injection, schedule: Q04DX003 (ip), vehicle: Klucel (hydroxypropylcellulose) (HPC)",204 % of control
same,T/C,"dose: 22.0 mg/kg/injection, schedule: Q01DX009 (ip), vehicle: Klucel (hydroxypropylcellulose) (HPC)",272 % of control
same,T/C,"dose: 30.0 mg/kg/injection, schedule: Q04DX003 (ip), vehicle: Klucel (hydroxypropylcellulose) (HPC)",238 % of control and 272 % of control
same,T/C,"dose: 33.0 mg/kg/injection, schedule: Q01DX009 (ip), vehicle: Klucel (hydroxypropylcellulose) (HPC)",231 % of control
same,T/C,"dose: 44.0 mg/kg/injection, schedule: Q04DX003 (ip), vehicle: Klucel (hydroxypropylcellulose) (HPC)",238 % of control
same,T/C,[3],240 % of control and 250 % of control
same,T/C,"dose: 67.0 mg/kg/injection, schedule: Q04DX003 (ip), vehicle: Klucel (hydroxypropylcellulose) (HPC)",235 % of control and 223 % of control
same,T/C,"dose: 75.0 mg/kg/injection, schedule: Q01DX009 (ip), vehicle: Klucel (hydroxypropylcellulose) (HPC)",104 % of control
same,T/C,[4],220 % of control
same,T/C,"dose: 150.0 mg/kg/injection, schedule: Q04DX003 (ip), vehicle: Klucel (hydroxypropylcellulose) (HPC)",160 % of control
COc1cc(-c2ccc(N=Nc3c(O)ccc4ccccc34)c(OC)c2)ccc1N=Nc1ccc2c(S(=O)(=O)O)cc(S(=O)(=O)O)c(N)c2c1O,T/C,[5],111 % of control
same,T/C,"dose: 50.0 mg/kg/injection, schedule: Q04DX003 (ip), vehicle: saline",104 % of control
same,T/C,"dose: 100.0 mg/kg/injection, schedule: Q04DX003 (ip), vehicle: saline",100 % of control
same,T/C,"dose: 200.0 mg/kg/injection, schedule: Q01DX009 (ip), vehicle: saline",105 % of control
same,T/C,"dose: 200.0 mg/kg/injection, schedule: Q04DX003 (ip), vehicle: saline",100 % of control
CCC(/C=C/C(C)C1CCC2C3CC=C4CC(O)CCC4(C)C3CCC12C)C(C)C (stereo not drawn) (tested in a mixture with another compound),T/C,"dose: 25.0 mg/kg/injection, schedule: Q01DX009 (ip), vehicle: saline",104 % of control
same,T/C,"dose: 25.0 mg/kg/injection, schedule: Q04DX003 (ip), vehicle: alcohol",109 % of control
same,T/C,[5],95 % of control
same,T/C,"dose: 50.0 mg/kg/injection, schedule: Q04DX003 (ip), vehicle: alcohol",95 % of control
same,T/C,"dose: 100.0 mg/kg/injection, schedule: Q01DX009 (ip), vehicle: saline",100 % of control
same,T/C,"dose: 100.0 mg/kg/injection, schedule: Q04DX003 (ip), vehicle: alcohol",100 % of control
